What was measured:
[1] = target: High affinity cGMP-specific 3',5'-cyclic phosphodiesterase 9A (Homo sapiens, UniProt O76083); assay: Inhibition of PDE9 in human SH-SY5Y cells measured after 2 hrs by Western blot analysis; assay type: cell-based
[2] = target: T1, Protein deacetylase HDAC6 (Homo sapiens, UniProt Q9UBN7); assay: Inhibition of HDAC6 in human SH-SY5Y cells measured after 2 hrs by Western blot analysis; assay type: cell-based
T1 sequence (Q9UBN7 whole entry): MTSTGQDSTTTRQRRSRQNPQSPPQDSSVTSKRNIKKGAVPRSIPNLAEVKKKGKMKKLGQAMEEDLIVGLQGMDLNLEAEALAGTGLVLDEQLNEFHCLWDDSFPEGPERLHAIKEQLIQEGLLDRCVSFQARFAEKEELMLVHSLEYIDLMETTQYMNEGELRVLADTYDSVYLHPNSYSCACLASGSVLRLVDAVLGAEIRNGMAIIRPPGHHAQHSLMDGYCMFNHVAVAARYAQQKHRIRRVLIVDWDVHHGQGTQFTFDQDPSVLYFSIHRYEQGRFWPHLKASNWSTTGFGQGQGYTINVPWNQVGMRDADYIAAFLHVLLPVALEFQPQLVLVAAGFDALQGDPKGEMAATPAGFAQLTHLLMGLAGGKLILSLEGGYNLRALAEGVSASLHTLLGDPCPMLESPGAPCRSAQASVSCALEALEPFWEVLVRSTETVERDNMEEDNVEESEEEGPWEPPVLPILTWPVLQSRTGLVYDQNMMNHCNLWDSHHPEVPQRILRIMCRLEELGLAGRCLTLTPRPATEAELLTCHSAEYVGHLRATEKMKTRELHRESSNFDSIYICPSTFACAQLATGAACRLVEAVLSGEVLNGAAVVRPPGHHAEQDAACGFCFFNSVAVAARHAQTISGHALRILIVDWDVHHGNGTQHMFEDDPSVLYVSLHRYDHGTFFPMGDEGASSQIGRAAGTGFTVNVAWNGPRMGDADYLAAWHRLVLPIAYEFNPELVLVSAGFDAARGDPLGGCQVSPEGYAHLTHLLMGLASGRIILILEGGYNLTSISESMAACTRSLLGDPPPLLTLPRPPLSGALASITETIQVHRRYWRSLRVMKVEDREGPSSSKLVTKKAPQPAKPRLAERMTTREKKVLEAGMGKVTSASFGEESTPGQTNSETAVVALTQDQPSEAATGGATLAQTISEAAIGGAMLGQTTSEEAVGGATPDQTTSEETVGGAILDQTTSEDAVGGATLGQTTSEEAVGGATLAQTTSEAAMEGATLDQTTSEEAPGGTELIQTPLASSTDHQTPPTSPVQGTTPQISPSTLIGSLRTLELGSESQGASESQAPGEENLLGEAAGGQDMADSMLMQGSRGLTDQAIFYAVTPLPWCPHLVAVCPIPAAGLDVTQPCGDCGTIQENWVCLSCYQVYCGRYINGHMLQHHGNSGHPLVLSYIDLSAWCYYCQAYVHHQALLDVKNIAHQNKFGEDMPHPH

[3] = target: T1, Protein deacetylase HDAC6; assay: Inhibition of HDAC6 (unknown origin) by microtiter plate reader analysis
[4] = target: T1, Protein deacetylase HDAC6; assay: Inhibition of HDAC6 in human HeLa cells measured after 2 hrs by Western blot analysis; assay type: cell-based
[5] = target: Glutamate [NMDA] receptor; assay: Binding affinity to NMDAR (unknown origin) assessed as inhibition constant by [3H]MK-801 binding assay; assay type: protein-complex assay, Homo sapiens
[6] = Half life in mouse plasma measured for 5 to 60 mins by HPLC/MS/MS analysis; assay type: ADME, cell-free; details: time 5-60 min
in vivo = details: mouse, brain and plasma

Sequence of High affinity cGMP-specific 3',5'-cyclic phosphodiesterase 9A (O76083 whole entry): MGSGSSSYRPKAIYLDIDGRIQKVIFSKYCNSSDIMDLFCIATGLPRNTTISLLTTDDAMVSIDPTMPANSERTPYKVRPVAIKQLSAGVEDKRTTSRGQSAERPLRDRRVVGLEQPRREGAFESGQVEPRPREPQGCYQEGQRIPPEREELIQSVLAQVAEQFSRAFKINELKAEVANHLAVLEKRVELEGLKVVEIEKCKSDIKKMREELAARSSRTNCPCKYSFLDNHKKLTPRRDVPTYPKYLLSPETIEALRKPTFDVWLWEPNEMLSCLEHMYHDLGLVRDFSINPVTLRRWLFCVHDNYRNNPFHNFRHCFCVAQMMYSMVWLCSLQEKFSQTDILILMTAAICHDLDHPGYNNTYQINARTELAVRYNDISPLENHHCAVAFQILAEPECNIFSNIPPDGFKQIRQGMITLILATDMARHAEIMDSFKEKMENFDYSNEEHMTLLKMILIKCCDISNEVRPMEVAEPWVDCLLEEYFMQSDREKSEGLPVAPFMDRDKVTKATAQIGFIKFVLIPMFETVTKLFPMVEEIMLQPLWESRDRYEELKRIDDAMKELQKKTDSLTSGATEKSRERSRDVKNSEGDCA

C[C@@H]1CN(Cc2ccc(C(=O)NO)cc2)C[C@H]1c1nc2c(cnn2C2CCCC2)c(=O)[nH]1
IC50 [1]: 40 nM | IC50 [2]: 107 nM

CCN(CC)c1ccc(C(=O)NCCCCCCC(=O)NO)cc1
IC50 [3]: 0.0095 nM

CC12CC3CC(C)(C1)CC(NC(=O)/C=C/c1ccc(C(=O)NO)cc1)(C3)C2
IC50 [4]: 180 nM | Ki [5]: 590 nM

O=C(NO)c1cnc(NC2(c3ccccc3)CC2)nc1
half-life [6]: 12 min

O=C(NO)c1cnc(NC2(c3cccc(F)c3)CCCCC2)nc1
Kp (in vivo): 1.26 | half-life [6]: 30 min

CN1CCc2c(c3ccccc3n2Cc2ccc(C(=O)NO)cc2)C1 [TUBASTATIN A]
Kp (in vivo): 1.22
